Laboratory results taken from US6861429B2, “2,3-diaryl-pyrazolo[1,5-b]pyridazines derivatives, their preparation and their use as cyclooxygenase 2 (COX-2) inhibitors” (SmithKline Beecham Corporation, priority 1997, dated 2005).

How the values were obtained:
human COX-2 = biological target: T1, human COX-2 (Homo sapiens, UniProt P35354); test: Inhibition of PGE2 release in COS cells stably transfected with human COX-2; format: cell-based; settings: 30 μM arachidonic acid, PGE2 release by enzyme immunoassay
T1 construct: expressed in transfected cells
T1 sequence (P35354 18-604): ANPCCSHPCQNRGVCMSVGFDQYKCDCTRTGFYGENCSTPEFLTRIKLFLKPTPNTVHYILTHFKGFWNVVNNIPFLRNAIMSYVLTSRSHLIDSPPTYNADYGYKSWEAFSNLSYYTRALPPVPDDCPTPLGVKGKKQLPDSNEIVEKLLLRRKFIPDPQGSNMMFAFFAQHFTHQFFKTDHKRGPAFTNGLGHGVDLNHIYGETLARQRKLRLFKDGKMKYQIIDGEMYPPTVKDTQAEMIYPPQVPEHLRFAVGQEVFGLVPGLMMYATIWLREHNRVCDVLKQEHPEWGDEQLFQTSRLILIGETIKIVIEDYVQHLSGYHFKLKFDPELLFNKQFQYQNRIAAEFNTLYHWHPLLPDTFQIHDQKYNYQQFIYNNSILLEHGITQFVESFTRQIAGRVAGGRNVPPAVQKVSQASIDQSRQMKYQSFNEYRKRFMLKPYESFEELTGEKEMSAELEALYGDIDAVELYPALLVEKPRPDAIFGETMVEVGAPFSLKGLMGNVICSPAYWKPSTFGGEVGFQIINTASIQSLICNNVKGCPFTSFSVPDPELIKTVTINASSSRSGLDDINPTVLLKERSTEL
Method: (§1) Inhibitory activity against human COX-1and COX-2was assessed in COS cells which had been stably transfected with cDNA for human COX-1and human COX-2. 24Hours prior to experiment, COS cells were transferred from the 175 cm^2flasks in which they were grown, onto 24-well cell culture plates using the following procedure. The incubation medium (Dulbecco's modified eagles medium (DMEM) supplemented with heat-inactivated foetal calf serum (10% v/v), penicillin (100 IU/ml), streptomycin (100 μg/ml) and geneticin (600 μg/ml)) was removed from a flask of confluent cells (1flask at confluency contains approximately 1×10^7 cells). 10 ml of phosphate buffered saline (PBS) was added to the flask to wash the cells. Having discarded the PBS, cells were then rinsed in 10 ml trypsin for 20 seconds, after which the trypsin was removed and the flask placed in an incubator (37°) for 1-2 minutes until cells became detached from the flask. The flask was then removed from the incubator and cells resuspended in 10 ml of fresh incubation medium. The contents of the flask was transferred to a 250 ml sterile container and the volume of incubation medium subsequently made up to 100 ml. […] If more than 1 flask of cells were required, the cells from the individual flasks were combined before being dispensed into the 24-well plates.
(§2) Following the overnight incubation, the incubation medium was completely removed from the 24-well cell culture plates and replaced with 250 μl fresh DMEM (37° C.). The test compounds were made up to 250× the required test concentration in DMSO and were added to the wells in a volume of 1 μl. […] Plates were then incubated for a further 15 minutes, after which the incubation medium was removed from each well of the plates and stored at −20° C., prior to determination of prostaglandin E2(PGE2) levels using enzyme immunoassay. […] The selectivity ratio of inhibition of COX-1 versus COX-2 was calculated by comparing respective IC50 values.

human COX-1 = biological target: T2, human COX-1 (Homo sapiens, UniProt P23219); test: Inhibition of PGE2 release in COS cells stably transfected with human COX-1; format: cell-based; settings: 30 μM arachidonic acid, PGE2 release by enzyme immunoassay
T2 construct: expressed in transfected cells
T2 sequence (P23219 24-599): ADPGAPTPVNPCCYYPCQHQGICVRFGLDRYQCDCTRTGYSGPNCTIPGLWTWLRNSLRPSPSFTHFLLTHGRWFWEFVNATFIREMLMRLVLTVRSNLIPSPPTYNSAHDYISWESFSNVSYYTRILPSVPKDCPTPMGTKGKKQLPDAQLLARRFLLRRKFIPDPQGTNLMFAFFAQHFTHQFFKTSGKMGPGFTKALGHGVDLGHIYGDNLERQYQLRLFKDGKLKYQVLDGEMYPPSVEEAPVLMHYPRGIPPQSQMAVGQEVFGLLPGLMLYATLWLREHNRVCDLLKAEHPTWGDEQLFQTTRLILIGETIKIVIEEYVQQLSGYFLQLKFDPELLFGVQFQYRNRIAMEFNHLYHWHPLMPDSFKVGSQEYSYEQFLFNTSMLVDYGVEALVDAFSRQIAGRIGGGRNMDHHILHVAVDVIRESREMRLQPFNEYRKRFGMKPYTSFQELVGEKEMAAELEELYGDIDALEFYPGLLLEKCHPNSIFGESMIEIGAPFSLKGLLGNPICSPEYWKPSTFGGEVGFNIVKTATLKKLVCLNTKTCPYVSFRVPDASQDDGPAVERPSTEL
Method: as §1, §2

| Structure (SMILES) | IC50 (human COX-2) | IC50 (human COX-1) |
| --- | --- | --- |
| CS(=O)(=O)c1ccc(-c2c(-c3ccc(F)cc3)nn3nc(OC(F)F)ccc23)cc1 [1(v), 6-Difluoromethoxy-2-(4-fluoro-phenyl)-3-(4-methanesulfonyl-phenyl)-pyrazolo[1,5-b]pyridazine] | 35 nM | > 100000 nM |
| COc1ccc(-c2nn3ncccc3c2-c2ccc(S(C)(=O)=O)cc2)cc1 [2(ii), 3-(4-Methanesulfonyl-phenyl)-2-(4-methoxy-phenyl)-pyrazolo[1,5-b]pyridazine] | < 10 nM |  |

Further lines, results first:

| IC50 (human COX-2) | IC50 (human COX-1) | Structure (SMILES) |
| --- | --- | --- |
|  | > 100000 nM | CCOc1ccc(-c2nn3ncccc3c2-c2ccc(S(C)(=O)=O)cc2)cc1 [3(ii), 2-(4-Ethoxy-phenyl)-3-(4-methanesulfonyl-phenyl)-pyrazolo[1,5-b]pyridazine] |
| 16 nM | > 55200 nM | CS(=O)(=O)c1ccc(-c2c(-c3cccc(F)c3)nn3nc(OC(F)F)ccc23)cc1 [7(viii), 6-Difluoromethoxy-2-(3-fluoro-phenyl)-3-(4-methanesulfonyl-phenyl)-pyrazolo[1,5-b]pyridazine] |
| 21 nM | > 100000 nM | CS(=O)(=O)c1ccc(-c2c(-c3ccc(OC(F)F)cc3)nn3ncccc23)cc1 [Example 5, 2-(4-Difluoromethoxy-phenyl)-3-(4-methanesulfonyl-phenyl)-pyrazolo[1,5-b]pyridazine] |
